{
  "source": "patent US10060933B2",
  "about": "“Methods for diagnosis and treatment of amyotrophic lateral sclerosis based on an increased level of interaction between TDP-43 polypeptide and NF-KB P65 polypeptide” (UNIVERSITE LAVAL, priority 2011, dated 2018)",
  "key": {"[1]": {"tested_on": "Mac-2 positive cells", "assay": "Activated microglia (Mac-2, Cox-2) in spinal cord sections", "assay_type": "in vivo, mouse", "method": "(§1) To study the in vivo effect of NF-κB inhibition on disease progression, we injected TDP-43^wt; GFAP-luc double transgenic mice with 3 mg/kg body weight of WA twice a week for 10-weeks starting at 30-weeks. […] We used TDP-43^wt; GFAP-luc double transgenic mice because the reporter luciferase (luc) allowed the longitudinal and non-invasive biophotonic imaging with CCD camera of the GFAP promoter activity which is a target of activated NF-κB. To analyse the spatial and temporal dynamics of astrocytes activation/GFAP induction in TDP-43 mouse model, we performed series of live imaging experiments. […] The downregulation of GFAP promoter activity was further confirmed in these mice using GFAP immunofluorescence of spinal cord sections of TDP-43^Wt mice (both drug-treated and untreated) (FIG. 8F). […] Down-regulation of GFAP along with reduction in active p65 levels in withaferin treated mice prompted us to analyse behavioural changes in these mice. […] The withaferin treated mice also had 40% reduction in the number of partially denervated neuromuscular junction (NMJ) (FIGS. 8E&G).\n(§2) 4% Paraformaldehyde (PFA) fixed spinal cord and brain sections of mice were sectioned and fixed on slides. For immunohistochemistry, tissues were treated with hydrogen-peroxide solution before permeabilisation. […]"}, "[2]": {"assay": "Detection of Withaferin A in the CSF of mice using HPLC", "assay_type": "in vivo, mouse", "method": "FIG. 15. Detection of Withaferin A in the CSF of mice using HPLC. […] For blank samples (B), 0.9% saline was injected in non-transgenic mice. 1.5 hrs after injection, CSF samples from the mice were obtained using […] into the cistern magna. 50 μl of the sample was mixed with 60% ACN 0.1% formic acid, centrifuged and the supernatant was injected into HPLC. […] 1000 ng/ml withaferin-a chemical served as a standard (C). Withaferin retention time was 1.6 mins."}, "[3]": {"tested_on": "GFAP-luc/TDP-43^Wt mice", "assay": "Accelerating rotarod in TDP-43^Wt transgenic mice", "assay_type": "in vivo, mouse", "method": "as §1\n(§3) Age matched control non-transgenic animals (n=10) and in TDP-43^Wt (n=10) littermates were injected twice a week with 0.9% saline intra-peritoneally. All the behavioral and imaging experiments were conducted in a double blind manner as such the experimenter had no knowledge of the drug treatment or the genotype of animals.\nAccelerating rotarod was performed on mice at 4 rpm speed with 0.25 rpm/sec acceleration as described elsewhere^30. Mice were subjected to three trials per session and every two weeks."}, "[4]": {"tested_on": "peripherin", "assay": "Peripherin immunofluorescence and immunoblot of spinal cord", "assay_type": "in vivo, mouse", "conditions": "TDP-43^Wt mice, treated vs untreated", "method": "as §1\nSnap frozen spinal cords of mice were harvested with lysis buffer containing 25 mM HEPES-NaOH (pH 7.9), 150 mM NaCl, 1.5 mM MgCl2, 0.2 mM EDTA, 0.5% Triton-X-100, 1 mM dithiothreitol and protease inhibitor cocktail. Protein samples were estimated using Bradford method. The lysate was incubated with 50 μl of Dynabeads (Protein-G beads, Invitrogen), anti-TDP-43 polyclonal (ProteinTech, Chicago, Ill., USA) or anti-peripherin polyclonal antibody (AB1530, Chemicon, Billerica, Mass., USA). After subsequent washing, the beads were incubated overnight at 4° C. with […] of tissue lysate. Antibody-bound complexes were eluted by boiling in Laemmli sample buffer. Supernatants were resolved by 10% SDS-PAGE and transferred on nitrocellulose membrane (Biorad, Hercules, Calif., USA). The membrane was incubated with anti-ubiquitin antibody (1:1000, Abcam, Cambridge, Mass., USA). For other western blot assays, blots were incubated with primary antibodies against human monoclonal TARDBP antibody (1:1000, Abnova, clone E2-D3), peripherin polyclonal (1:1000, Chemcion—AB1530), peripherin monoclonal (1:500, Chemicon, AB1527), Clone NR4 for NF-L (1:1000, Sigma), Clone NN18 for NF-M (1:1000, Millipore) and Clone N52 for NF-H (1:1000, Millipore). Immunoreactive proteins were then visualized by chemiluminescence (Perkin and Elmer, Santa Clara, Calif., USA) as described previously (Dequen et al., 2008). Actin (1:10000, Chemicon) is used as a loading control.\nas §2"}, "[5]": {"target": "T1, p65 (Mus musculus, UniProt Q04207)", "T1 construct": "from tissue; host or cells: spinal cord of GFAP-luc/TDP-43^Wt transgenic mice (nuclear lysates)", "assay": "p65 EMSA on spinal cord tissue nuclear lysates", "assay_type": "in vivo", "conditions": "treated vs untreated GFAP-luc/TDP-43^Wt mice", "method": "as §1\n48 hrs after transfection of CMV-p65 with pCMV-TDP43^WT or pCMV-TDP43^G348C and treatment with LPS, BV-2 cells were harvested and nuclear extracts prepared. […] Concentrations of nuclear proteins were determined on diluted samples using a Bradford assay (Biorad). […]"}, "[6]": {"tested_on": "GFAP promoter activity", "assay": "In vivo bioluminescence imaging of GFAP-luc in spinal cord", "design": "species or system mouse", "conditions": "for GFAP promoter activity / GFAP-luc expression (bioluminescence) in spinal cord: GFAP-luc/TDP-43^Wt mice, 3 mg/kg i.p. twice a week for 10 weeks from 30 weeks, 36 and 40 weeks, vs untreated, 3 mg/kg", "method": "as §1, §3\nAs previously described^31, 32, the images were gathered using IVIS® 200 Imaging System (CaliperLSXenogen, Alameda, Calif., USA). Twenty-five minutes prior to imaging session, the mice received intraperitoneal (i.p.) injection of the luciferase substrate D-luciferine (150 mg/kg—for mice between 20 and 25 g, […] of a solution of 20 mg/ml of D-luciferine dissolved in 0.9% saline was injected) (CaliperLS-Xenogen)."}, "[7]": {"conditions": "withaferin treated TDP-43 transgenic mice after cessation of treatment"}},
  "note": "“Also recorded” adds a separate entry of the source.",
  "data": [
    {"smiles": "CC1=C(CO)C(=O)O[C@@H]([C@@H](C)[C@H]2CC[C@H]3[C@@H]4C[C@H]5O[C@]56[C@@H](O)C=CC(=O)[C@]6(C)[C@H]4CC[C@]23C)C1", "note": "[Withaferin A]", "values": [
      {"measurement": "Mac-2^+ cells in L5 spinal cord", "setting": "[1]; TDP-43^Wt (Withaferin treated) mice, untreated 13000±500/mm^3", "value": "6000±300 /mm^3"},
      {"measurement": "activated microglia (Mac-2 and Cox-2 double immunofluorescence)", "setting": "[1]; TDP-43^Wt mice, treated vs untreated", "value": "marked reduction in activated microglia"},
      {"measurement": "Withaferin A in CSF (HPLC)", "setting": "[2]; 3 mg/kg intra-peritoneally, CSF 1.5 hrs after injection, 8-months old non-transgenic and TDP-43^Wt mice", "value": "presence of Withaferin-A"},
      {"measurement": "passage of the blood-brain barrier", "setting": "[2]; mice, FIG. 15", "value": "passes the blood-brain barrier"},
      {"measurement": "rotarod performance", "setting": "[3]; GFAP-luc/TDP-43^Wt mice, 3 mg/kg i.p. twice a week for 10 weeks, vs untreated, 3 mg/kg", "value": "significantly better motor performance; also recorded: much better rotarod performance"},
      {"measurement": "ameliorated motor impairment compared to untreated mice", "setting": "[3]; TDP-43^WT or TDP-43^G348C transgenic mice", "value": "at least 4%"},
      {"measurement": "rotarod performance after cessation of the drug treatment", "setting": "[3]; [7]", "value": "decrease in rotarod performance"},
      {"measurement": "peripherin in spinal cord (immunofluorescence, polyclonal antibody)", "setting": "[4]; listed as Withaferin", "value": "reduced levels of peripherin"},
      {"measurement": "peripherin levels in spinal cord (western blot / immunoblot, monoclonal antibody)", "setting": "[4]; listed as Withaferin", "value": "reduced levels of peripherin"},
      {"measurement": "peripherin in spinal cord (immunofluorescence, polyclonal antibody)", "setting": "[4]; listed as withaferin", "value": "reduction of peripherin aggregates"},
      {"measurement": "peripherin levels in spinal cord (western blot / immunoblot, monoclonal antibody)", "setting": "[4]; listed as withaferin", "value": "reduced"},
      {"measurement": "nuclear active p65 (EMSA)", "setting": "[5]", "value": "reduced amount of active p65; also recorded: much reduced nuclear active p65"},
      {"measurement": "GFAP promoter activity / GFAP-luc expression (bioluminescence) in spinal cord", "setting": "[6]", "value": "Significant reduction"},
      {"measurement": "GFAP promoter activity / GFAP-luc expression (bioluminescence) in spinal cord", "setting": "[6]; listed as WA", "value": "progressive reduction in GFAP-luc expression"},
      {"measurement": "GFAP luciferase activity after cessation of the drug treatment", "setting": "[6]; [7]", "value": "increase in GFAP luciferase activity"}
    ]}
  ]
}
